Our source for the RP-LC retention time values is the METLIN SMRT retention time set (Domingo-Almenara et al. 2019).

The data set can be described thus: gradient 5% acetonitrile 3 min, to 50% in 2 min, to 85% in 15 min, held 3 min, 100 µL/min. The note with it: column: Zorbax Extend-C18 2.1 x 50 mm; eluents: water / acetonitrile, 0.1% formic acid. In outline:
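Using water and acetonitrile that each contained 0.1% formic acid, mixtures of ~100 pure standards were separated at 100 μL/min on a Zorbax Extend-C18 column (2.1 × 50 mm, 1.8 μm). The HPLC fed a quadrupole time-of-flight mass spectrometer working in positive and negative ionization mode, with dead and dwell volumes of 40 μL and 900 μL. Data were acquired over 3 months. Retention time was read from computationally picked adduct peaks after manual inspection of each.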
As to `Cc1cc(N2CCN(C(=O)c3ccc(F)cc3)CC2)nc(N2CCOCC2)n1`, the RP-LC retention time worked out at 608 s.
The value for `Cc1ccc(N2CCN(S(=O)(=O)c3ccc(-c4nnc(C5CC5)o4)o3)CC2)cc1` was 1040 s; that for `COc1ccc(Nc2c(-c3ccc(Cl)cc3)nc3ncccn23)cc1OC` was 748 s; that for `CCNc1ncnc2sc3c(c12)CCN(S(=O)(=O)c1ccccc1)C3` was 805 s.
For the compound `CCc1nc2ccccc2c(=O)n1Cc1noc(-c2cccc(N(C)C)c2)n1`, the RP-LC retention time was determined as 998 s.
In the case of `CCCCC(=O)Nc1ccc2nc(N3CCN(CCC)CC3)cc(C(=O)O)c2c1`, the RP-LC retention time came out at 590 s.
`Cc1ccc(NC(=O)Cn2ncc3c(c2=O)N(CC2CC2)C(=O)CS3)c(C)c1` registered an RP-LC retention time of 782 s.
As for `O=C(NCc1cccnc1)C1CCN(Cc2cc3ccccc3n2Cc2ccccc2)CC1`, the RP-LC retention time came to 624 s.
For the compound `CCOc1ccc(-c2cc3c(=O)n(Cc4nc(-c5cccc(Br)c5)no4)ncn3n2)cc1`, the RP-LC retention time stood at 1280 s.
`Cn1cc(CCNC(=O)CSc2ccccc2)c2cccnc21` had an RP-LC retention time of 686 s.
`Cc1ccc(N2C(=O)N(Cc3ccccc3)S(=O)(=O)c3cccnc32)cc1F` displayed an RP-LC retention time of 1100 s.
The value for `Cc1c(-c2ccnc(N3CCN(C)CC3)n2)cnc2nc(SCc3ccccc3)nn12` was 672 s; that for `O=C(NCc1ccc(Cl)cc1)C1CCN(c2cc(N3CCOCC3)ncn2)CC1` was 663 s; that for `Cc1ccn(-c2ccc(C(=O)Nc3ccccc3)cn2)n1` was 885 s.
Take `O=C(c1ccoc1)N1CCc2c(c(CO)nn2Cc2ccccc2)C1`: the RP-LC retention time is 659 s.
In the case of `Cc1ccc(-n2c(=O)c3c(cc(C)n3C)n(CC(=O)Nc3cccc(C)c3)c2=O)cc1`, the RP-LC retention time worked out at 905 s.
Take `COC(=O)C(C)NC(=O)N1CCCN(C2=NS(=O)(=O)C(c3ccccc3)=C2C)CC1` (stereo not drawn): the RP-LC retention time worked out at 715 s.
Take `Cc1ccc(-c2csc(NC(=O)CN3C(=O)c4ccccc4C3=O)n2)o1`: the RP-LC retention time was 852 s.
In turn, `Cc1ccc(C)c(NC(=O)C2CCN(C(=O)c3ncn4c3COC(c3ccc(F)cc3)C4)CC2)c1` (stereo not drawn) returned an RP-LC retention time of 809 s.
The value for `Cc1ccc(C(=O)NC2CCN(c3cc(-c4cccs4)[nH]n3)C2)cc1` (stereo not drawn) was 733 s.
The value for `COc1cccc(NC(=O)Cn2nc3c(Oc4cc(C)cc(C)c4)nccn3c2=O)c1` was 904 s; that for `COc1ccc(S(=O)(=O)N(C)C2CCc3nn(CC4CC4)c(=O)n3CC2)cc1OC` (stereo not drawn) was 731 s.
For `Cc1noc(C2CN(S(=O)(=O)c3ccccc3)CC23CCOCC3)n1` (stereo not drawn), the RP-LC retention time was 767 s.
`Cc1ccc(C(=O)Nc2ccc3c(c2)CCC(=O)N3)s1` registered an RP-LC retention time of 680 s.
Turning to `O=C([C@@H]1C[C@H](F)CN1C(=O)Nc1ccc(F)cc1)N1CCOCC1`, the RP-LC retention time was determined as 608 s.
In turn, `CC(C)Cc1csc(-c2csc(S(=O)(=O)NCc3ccccc3F)c2)n1` gave an RP-LC retention time of 1140 s.
Consider `COCCN(C)C(=O)c1cn(C2CN(S(=O)(=O)c3c(C)noc3C)C2)nn1`, for which the RP-LC retention time was 703 s.
The value for `O=C1N(c2ccc(F)cc2)c2ncccc2S(=O)(=O)N1Cc1ccccc1F` was 1040 s.
Compound `Cc1ccc(-c2csc(NC(=O)CCCc3nc(-c4ccccc4Cl)no3)n2)cc1` showed an RP-LC retention time of 1180 s.
`O=C(Nc1ccc(Br)cc1)C1CCCN(c2nccnc2Sc2ccccc2)C1` (stereo not drawn) had an RP-LC retention time of 1220 s.
The value for `O=C(Nc1ccc2[nH]nc(-c3ccncc3)c2c1)[C@@H]1CCN(CC(=O)N2CCN(c3ccc(-c4ncccn4)cc3)CC2)C1` was 628 s.
The value for `Cc1nn(C)c2c(N3CCC(C(=O)N4CCN(CC(=O)N5CCOCC5)CC4)CC3)nccc12` was 560 s; that for `COc1ccc(-c2noc(-c3cccnc3N3CCN(Cc4ccccc4)CC3)n2)cc1` was 760 s.
As to `O=c1n(Cc2cc(F)cc(F)c2)nc2c(-c3nc(-c4cccc(F)c4)no3)cccn12`, the RP-LC retention time was determined as 1050 s.
The value for `O=C1CC(c2ccc(O)cc2)c2c(c(C(=O)O)cn2-c2cccc(C(F)(F)F)c2)N1` (stereo not drawn) was 746 s; that for `CC1CCCCN1CCNC(=O)CCCn1c(=O)c2cccn2c2ccc(F)cc21` (stereo not drawn) was 641 s.
For the compound `CN1C(=O)c2cccn2CC1CNS(=O)(=O)Cc1ccccc1F` (stereo not drawn), the RP-LC retention time was 670 s.
The value for `O=C(Cn1cc(-c2nnco2)c2ccccc21)NCc1ccccc1Cl` was 831 s; that for `COc1ccc(NC(=O)Cn2ccnc2-c2ccnc(N3CCOCC3)c2)cc1OC` was 578 s; that for `O=C(c1ccc(Cl)s1)N1CCc2nc(-c3ccc(Cl)cc3)ncc2C1` was 1210 s.
The value for `Cn1cnnc1-c1nn(C)c2c1CN(C(=O)CCc1cc(Cl)no1)CC2` was 629 s; that for `Cc1ccsc1C(=O)Nc1cccn2cnnc12` was 666 s; that for `CCOc1nc2ccccc2nc1N1CCCC(C(=O)NCc2ccco2)C1` (stereo not drawn) was 1020 s.
As for `CCN(CC)Cc1ccc2cc(COC(=O)Nc3ccc(C(=O)NO)cc3)ccc2c1`, the RP-LC retention time came to 654 s.
The value for `O=C(CNC(=O)c1ccccc1)NCCSc1ccc(C(=O)Nc2ccccc2)cn1` was 728 s; that for `CCCNC(=O)N(C1CCOCC1)C1CCN(S(=O)(=O)c2ccc(C)cc2C)CC1` was 841 s.
The compound `CCCCc1ccc(NC(=O)CSc2cc(N3CCC(C(=O)NCCC)CC3)ncn2)cc1` came in with an RP-LC retention time of 967 s.
Compound `Cn1c(=O)c(N2CCC(C(=O)NCc3cccs3)CC2)nc2ccccc21` gave an RP-LC retention time of 805 s.
Regarding `COc1ccc(OC)c(S(=O)(=O)Cc2nc(-c3ccc(Cl)cc3)no2)c1`, the RP-LC retention time came out at 1030 s.
`O=C(NC1CCCCC1)C1CCN(S(=O)(=O)c2cc(C(=O)N3CCCCCC3)cs2)CC1` showed an RP-LC retention time of 902 s.
In turn, `CC(C)CN(CC(C)C)C(=O)C1CCCN(c2ncnc3c2nc2n3CCCCC2)C1` (stereo not drawn) gave an RP-LC retention time of 1000 s.
Consider `CCn1c(C(=O)N2CCCC(C(=O)N3CCc4ccccc4C3)C2)cc2sccc21` (stereo not drawn), for which the RP-LC retention time is 966 s.
On to `CC(C)CC(=O)Nc1ccc(-n2cnc(C(=O)N3CCC(C)CC3)c2)nc1`, for which the RP-LC retention time turned out to be 774 s.
In turn, `COCCNC(=O)C1CCN(c2cncnc2N2CCCC2)CC1` yielded an RP-LC retention time of 580 s.
`Cc1nc(CNC(=O)[C@H]2CCCN2S(=O)(=O)c2ccc3c(c2)oc(=O)n3C)cs1` yielded an RP-LC retention time of 655 s.
As for `Cc1ccc(N2C(=O)CN(S(=O)(=O)c3ccccc3)CC2(C)C(=O)NCc2ccc(F)cc2)cc1` (stereo not drawn), the RP-LC retention time is 875 s.
The value for `CC1CCN(C(=O)CN2C(=O)COc3ccc(C(=O)N4CCCCC4)cc32)CC1` was 716 s; that for `Cc1cccc(C2CCCN2C(=O)c2nn(C)cc2Cl)c1` (stereo not drawn) was 849 s.
